From ChEMBL document CHEMBL1138198, “Carbonic anhydrase inhibitors: DNA cloning and inhibition studies of the alpha-carbonic anhydrase from Helicobacter pylori, a new target for developing sulfonamide and sulfamate gastric drugs” (J Med Chem, 2006)

Assays:
[1] = target: T1, Carbonic anhydrase (Helicobacter pylori (strain ATCC 700392 / 26695) (Campylobacterpylori), UniProt O24855)
T1 sequence (O24855 whole entry): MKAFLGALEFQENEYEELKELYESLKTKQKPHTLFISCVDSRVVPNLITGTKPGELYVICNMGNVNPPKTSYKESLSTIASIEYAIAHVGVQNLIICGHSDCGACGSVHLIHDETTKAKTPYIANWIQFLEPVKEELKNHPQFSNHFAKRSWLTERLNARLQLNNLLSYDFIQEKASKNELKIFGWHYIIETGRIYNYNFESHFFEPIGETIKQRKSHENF
Description: Inhibition of Helicobacter pylori recombinant carbonic anhydrase by stopped-flow CO2 hydrase assay

[2] = target: Carbonic anhydrase 1 (Homo sapiens, UniProt P00915)
Chain of Carbonic anhydrase 1 (P00915 whole entry): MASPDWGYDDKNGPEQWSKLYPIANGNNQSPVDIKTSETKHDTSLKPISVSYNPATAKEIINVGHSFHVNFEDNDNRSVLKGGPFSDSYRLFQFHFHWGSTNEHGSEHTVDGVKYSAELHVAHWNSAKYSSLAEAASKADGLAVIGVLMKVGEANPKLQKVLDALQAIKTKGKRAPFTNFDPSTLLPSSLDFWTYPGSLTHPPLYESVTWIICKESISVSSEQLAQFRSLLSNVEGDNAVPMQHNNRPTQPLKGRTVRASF
Description: Inhibition of human recombinant carbonic anhydrase 1 by stopped-flow CO2 hydrase assay

SMILES	Ki [1] [nM]	Ki [2] [nM]
CC(C)(C)c1ccc(C(=O)Nc2cccc(S(N)(=O)=O)c2)cc1	316	10800
CC(C)(C)c1ccc(S(=O)(=O)Nc2ccc(S(N)(=O)=O)cc2)cc1	60	13000
CC(C)(C)c1ccc(S(=O)(=O)Nc2ccccc2S(N)(=O)=O)cc1	640	14700
CC(C)(C)c1ccc(S(=O)(=O)CCNc2ccc(S(N)(=O)=O)cc2)cc1	27	12000
CC(C)(C)c1ccc(C(=O)NCCc2ccc(S(N)(=O)=O)cc2)cc1	51	12400
CC(C)(C)c1ccc(C(=O)Nc2ccccc2S(N)(=O)=O)cc1	539	12300
CC(C)(C)c1ccc(S(=O)(=O)CNc2ccc(S(N)(=O)=O)cc2)cc1	31	12100
CC(C)(C)c1ccc(S(=O)(=O)Nc2cccc(S(N)(=O)=O)c2)cc1	318	9620
CC(C)(C)c1ccc(S(=O)(=O)Nc2nnc(S(N)(=O)=O)s2)cc1	12	338
CC(C)(C)c1ccc(C(=O)Nc2nnc(S(N)(=O)=O)s2)cc1	13	541
Nc1ccc(S(=O)(=O)NCc2ccc(S(N)(=O)=O)cc2)cc1	131	–
Nc1ccc(S(N)(=O)=O)cc1I	510	–
Nc1ccc(S(=O)(=O)Nc2nnc(S(N)(=O)=O)s2)cc1	268	–
CC(C)(C)c1ccc(C(=O)NCc2ccc(S(N)(=O)=O)cc2)cc1	62	13300
CC(C)(C)c1ccc(C(=O)Nc2ccc(S(N)(=O)=O)cc2)cc1	79	14200
Nc1nccc(Nc2ccc(S(N)(=O)=O)cc2)n1	84	–
Nc1ccc(S(N)(=O)=O)cc1Br	452	–
Cn1nc(S(N)(=O)=O)sc1=N	549	–
Nc1ccc(S(N)(=O)=O)cc1F	1230	–
Nc1ccc(S(N)(=O)=O)cc1Cl	378	–
Nc1ccc(S(=O)(=O)NCCc2ccc(S(N)(=O)=O)cc2)cc1	114	–
NS(=O)(=O)c1ccc(S(=O)(=O)Nc2cccc3c(Cl)c[nH]c23)cc1	413	–
CCN[C@H]1CN(CCCOC)S(=O)(=O)c2sc(S(N)(=O)=O)cc21 [BRINZOLAMIDE]	210	–
NS(=O)(=O)c1ccc(C(=O)O)cc1 [CARZENIDE]	1050	–
NCc1ccc(S(N)(=O)=O)cc1 [MAFENIDE]	873	–
Cc1ccc(S(N)(=O)=O)cc1 [P-TOLUENESULFONAMIDE]	450	–
